The CheMixHub viscosity set

Test: xn = mol fraction of the nth substance listed

NCCNCCN + O
viscosity [mPa·s], 101 kPa
Conditions	293.15 K	298.15 K	303.15 K	313.15 K	323.15 K
x1 = 0.0425	–	2.44	2.06	1.55	1.23
x1 = 0.0565	–	–	–	–	1.615
x1 = 0.0568	–	3.46	2.88	2.07	1.6
x1 = 0.1	11.17	–	7.2	4.78	3.41
x1 = 0.1999	48.86	–	24.8	14.08	8.54
x1 = 0.2999	61.11	–	30.19	16.63	10.2
x1 = 0.3997	44.08	–	23.49	13.62	8.35
x1 = 0.4997	29.78	–	16.66	10.31	6.79
x1 = 0.5997	20.36	–	12.11	7.77	5.28
x1 = 0.6996	14.64	–	9.24	6.17	4.22
x1 = 0.7992	10.95	–	–	4.9	3.55
x1 = 0.8073	–	–	–	–	3.445
x1 = 0.8954	8.515	–	–	–	–
x1 = 0.8989	8.48	–	5.52	4.11	3.03

O.OC[C@H]1O[C@H](O[C@H]2[C@H](O)[C@@H](O)[C@H](O)O[C@@H]2CO)[C@H](O)[C@@H](O)[C@@H]1O + O
viscosity [mPa·s]
Conditions	x1 = 0.000899	x1 = 0.001221	x1 = 0.001607	x1 = 0.001874	x1 = 0.002333	x1 = 0.002646	x1 = 0.006
298.15 K, 101 kPa	0.936	0.956	0.974	0.988	1.012	1.026	–
308.15 K, 101 kPa	0.756	0.77	0.785	0.795	0.815	0.825	–
310 K, 101.3 kPa	–	–	–	–	–	–	1.09
318.15 K, 101 kPa	0.626	0.636	0.649	0.657	0.671	0.681	–

O=S(=O)([O-])[O-].O=S(=O)([O-])[O-].O=S(=O)([O-])[O-].[Al+3].[Al+3] + O
viscosity [mPa·s], 101 kPa
Conditions	298.15 K	323.15 K
x1 = 0.0016	1.12	0.597
x1 = 0.00272	–	0.734
x1 = 0.00291	–	0.743
x1 = 0.0032	1.36	0.695
x1 = 0.00384	–	0.839
x1 = 0.00482	–	0.96
x1 = 0.0053	1.93	0.925
x1 = 0.005932	–	1.074
x1 = 0.0071	2.44	1.15
x1 = 0.007109	–	1.242
x1 = 0.008241	–	1.431
x1 = 0.0087	3.17	1.44
x1 = 0.009379	–	1.686
x1 = 0.0105	4.21	1.82
x1 = 0.0106	–	1.989
x1 = 0.01197	–	2.398
x1 = 0.0123	5.95	2.41
x1 = 0.01327	–	2.919
x1 = 0.0145	8.96	3.43
x1 = 0.0147	–	3.571
x1 = 0.0154	10.5	3.96
x1 = 0.01608	–	4.31
x1 = 0.0161	11.8	4.33
x1 = 0.017	14.4	5.17
x1 = 0.01732	–	4.975
x1 = 0.0184	18	6.12
x1 = 0.01889	–	6.121

[F-].[K+] + O
Conditions	viscosity [mPa·s]
298.15 K, 100 kPa, x1 = 0.02	1.005
298.15 K, 100 kPa, x1 = 0.03	1.133
298.15 K, 100 kPa, x1 = 0.07	1.53
298.15 K, 100 kPa, x1 = 0.1	2.16
298.15 K, 100 kPa, x1 = 0.2	3.23
303.15 K, 101 kPa, x1 = 0.002	0.808
303.15 K, 101 kPa, x1 = 0.005	0.828
303.15 K, 101 kPa, x1 = 0.009	0.849
308.15 K, 101 kPa, x1 = 0.002	0.735
308.15 K, 101 kPa, x1 = 0.005	0.754
308.15 K, 101 kPa, x1 = 0.009	0.778
313.15 K, 101 kPa, x1 = 0.005	0.687
313.15 K, 101 kPa, x1 = 0.009	0.709
318.15 K, 101 kPa, x1 = 0.005	0.632
318.15 K, 101 kPa, x1 = 0.009	0.651
323.15 K, 100 kPa, x1 = 0.02	0.5955
323.15 K, 100 kPa, x1 = 0.03	0.7039
323.15 K, 100 kPa, x1 = 0.07	0.9529
323.15 K, 100 kPa, x1 = 0.1	1.35
323.15 K, 100 kPa, x1 = 0.2	2.021

CCOC(=O)C(Cl)(Cl)Cl + O=C(O)C(Cl)(Cl)Cl
323.15 K, 101 kPa
Conditions	viscosity [mPa·s]
x1 = 0.2358	3.172
x1 = 0.4086	2.346
x1 = 0.5988	1.742
x1 = 0.7928	1.334

CCCC[N+](CCCC)(CCCC)CCCC.[Br-] + OCC(O)CO
viscosity [mPa·s], x1 = 0.2
Conditions	296.97 K	298 K	302.02 K	307.2 K	312.13 K	317.31 K	322.23 K
101 kPa	892.4	–	671.4	484.4	331.4	238	195.5
101.33 kPa	–	333.9	–	–	–	–	–

CCCC[N+](CCCC)(CCCC)CCCC.[Br-] + OCCO
Conditions	viscosity [mPa·s]
293.15 K, 101 kPa, x1 = 0.333	187.3
298 K, 100 kPa, x2 = 0.75	98
298 K, 101.33 kPa, x1 = 0.2	41.51
298.15 K, 100 kPa, x1 = 0.333	188
298.15 K, 101 kPa, x1 = 0.2	69
303.15 K, 100 kPa, x1 = 0.2	161.7
303.15 K, 101 kPa, x1 = 0.2	53.8
303.15 K, 101 kPa, x1 = 0.333	124
308 K, 100 kPa, x2 = 0.75	57
308.15 K, 101 kPa, x1 = 0.2	42.6
313.15 K, 100 kPa, x1 = 0.2	102.1
313.15 K, 101 kPa, x1 = 0.2	31.2
313.15 K, 101 kPa, x1 = 0.333	84.3
318 K, 100 kPa, x2 = 0.75	35
318.15 K, 101 kPa, x1 = 0.2	27.8
323.15 K, 100 kPa, x1 = 0.2	61.85
323.15 K, 101 kPa, x1 = 0.2	21.7
323.15 K, 101 kPa, x1 = 0.333	58.7

CCCC[N+](CCCC)(CCCC)CCCC.[Br-] + OCCOCCO
viscosity [mPa·s]
Conditions	293.15 K	303.15 K	313.15 K	323.15 K
100 kPa, x1 = 0.2	–	265.6	165.5	92.86
101 kPa, x2 = 0.667	203.9	150.6	87.28	57.39

CCCC[N+](CCCC)(CCCC)CCCC.[Br-] + OCCOCCOCCO
100 kPa, x1 = 0.2
Conditions	viscosity [mPa·s]
303.15 K	279.6
313.15 K	176.9
323.15 K	101.6
